Like-named read-outs stand apart in the source and are kept apart here. *1 amine or outer side, *2 acyl side, *3 side chain or, on linkers, in order; H or OH if unused. Where a SMILES comes first, the peptide text is derived from it. Bridges are numbered along the chain shown (N, C = ends). [ ]: non-standard residue; d: D form. The star is where a group is joined. X25 = O=C([C@H](Cc1ccc(C(F)(F)F)cc1)N(CCC(F)(F)F)[*:1])[*:2]; hPhe(3-Cl-4-CF3) = N[C@@H](CCc1ccc(C(F)(F)F)c(Cl)c1)C(=O)O; NPrPhe(4-CF3) = CCCN[C@@H](Cc1ccc(C(F)(F)F)cc1)C(=O)O; Pip(4,4-F2) = O=C(O)[C@@H]1CC(F)(F)CCN1; NMeGly(cPent) = CN[C@H](C(=O)O)C1CCCC1; Hyp = O=C(O)[C@@H]1C[C@@H](O)CN1; NMeD = CN[C@@H](CC(=O)O)C(=O)O; NMeL = CN[C@@H](CC(C)C)C(=O)O; Morpholide = C1CN(*)CCO1; NMeA = CN[C@@H](C)C(=O)O; Ac5c = NC1(C(=O)O)CCCC1; Aze = O=C(O)[C@@H]1CCN1; NcPrGly = O=C(O)CNC1CC1; Ac4c = NC1(C(=O)O)CCC1; Sar = CNCC(=O)O
Key:
[1] = target: GDP-bound HRAS wild-type protein (Homo sapiens, UniProt P01112); assay: Binding to HRAS by surface plasmon resonance (SPR), Single Cycle Kinetics; settings: for HRAS/KRAS (ratio of KD value with respect to GDP-bound HRAS wild-type protein to KD value with respect to KRAS): SPR KD ratio HRAS/KRAS, class symbols
[2] = target: GDP-bound NRAS wild-type protein (Homo sapiens, UniProt P01111); assay: Binding to NRAS by surface plasmon resonance (SPR), Single Cycle Kinetics; settings: for NRAS/KRAS (ratio of KD value with respect to GDP-bound NRAS wild-type protein to KD value with respect to KRAS): SPR KD ratio NRAS/KRAS, class symbols
[3] = target: GDP-bound KRAS wild-type protein (Homo sapiens, UniProt P01116); assay: Binding to KRAS by surface plasmon resonance (SPR), Single Cycle Kinetics; settings: GDP-bound KRAS wild-type protein, read-out: KRAS KD
[4] = SPR, GDP-bound HRAS wild-type protein vs GDP-bound KRAS wild-type protein
[5] = SPR, GDP-bound NRAS wild-type protein vs GDP-bound KRAS wild-type protein
[6] = SPR Single Cycle Kinetics, 1:1 binding model
[7] = SPR, GDP-bound HRAS wild-type protein vs GDP-bound KRAS wild-type protein, KD ratio class
[8] = SPR, GDP-bound NRAS wild-type protein vs GDP-bound KRAS wild-type protein, KD ratio class
[9] = SPR, Single Cycle Kinetics, 1:1 binding model

Chain of GDP-bound HRAS wild-type protein (P01112 whole entry): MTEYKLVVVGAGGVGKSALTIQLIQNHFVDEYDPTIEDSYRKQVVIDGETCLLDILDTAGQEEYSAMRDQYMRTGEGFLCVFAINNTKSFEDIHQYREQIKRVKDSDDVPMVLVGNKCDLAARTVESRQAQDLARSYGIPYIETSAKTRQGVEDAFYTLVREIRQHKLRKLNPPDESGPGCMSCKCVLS
Chain of GDP-bound NRAS wild-type protein (P01111 whole entry): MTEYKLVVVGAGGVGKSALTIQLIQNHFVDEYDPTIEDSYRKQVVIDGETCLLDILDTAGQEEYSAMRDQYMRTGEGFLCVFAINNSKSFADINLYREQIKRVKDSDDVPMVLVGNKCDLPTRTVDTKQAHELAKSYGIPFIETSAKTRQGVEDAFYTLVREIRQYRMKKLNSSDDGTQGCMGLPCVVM
Chain of GDP-bound KRAS wild-type protein (P01116 whole entry): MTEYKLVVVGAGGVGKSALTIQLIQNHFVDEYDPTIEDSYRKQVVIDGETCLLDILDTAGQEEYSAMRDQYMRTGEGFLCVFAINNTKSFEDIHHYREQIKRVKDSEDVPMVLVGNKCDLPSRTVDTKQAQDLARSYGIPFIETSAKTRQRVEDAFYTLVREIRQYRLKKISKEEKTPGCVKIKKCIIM

Row | SMILES | HRAS/KRAS (ratio of KD value for HRAS to KD value for KRAS) [1, 4] | NRAS/KRAS (ratio of KD value for NRAS to KD value for KRAS) [2, 5] | Kd [3, 6] | Kd ([3]; SPR, Single Cycle Kinetics) | further results
1 | CC[C@H](C)[C@@H]1NC(=O)[C@H](CC(C)C)N(C)C(=O)C[C@@H](C(=O)N2CCOCC2)N(C)C(=O)[C@H](C2CCCC2)N(C)C(=O)C2(CCCC2)NC(=O)[C@@H]2CCCN2C(=O)[C@H](CCc2ccc(C(F)(F)F)c(Cl)c2)NC(=O)CN(C)C(=O)[C@H](Cc2ccc(C(F)(F)F)cc2)N(CCC(F)(F)F)C(=O)[C@@H]2CCN2C(=O)[C@H](C)N(C)C1=O [PP0117] ([NMeL]I[NMeA][Aze][X25][Sar][hPhe(3-Cl-4-CF3)]P[Ac5c][NMeGly(cPent)][NMeD]-Morpholide; lactam N-11) | B (a compound having 3 or more and less than 10 is denoted as B) | B (a compound having 3 or more and less than 10 is denoted as B) | 0.19 nM |  | 
2 | CCCN1C(=O)CN(C)C(=O)CN(C2CC2)C(=O)[C@H]([C@@H](C)CC)NC(=O)[C@H](CC(C)C)N(C)C(=O)C[C@@H](C(=O)N2CCOCC2)N(C)C(=O)[C@H](C2CCCC2)N(C)C(=O)C2(CCCC2)NC(=O)[C@@H]2CCCN2C(=O)[C@H](CCc2ccc(C(F)(F)F)c(Cl)c2)NC(=O)CN(C)C(=O)[C@@H]1Cc1ccc(C(F)(F)F)cc1 [PP0252] ([NMeL]I[NcPrGly][Sar][NPrPhe(4-CF3)][Sar][hPhe(3-Cl-4-CF3)]P[Ac5c][NMeGly(cPent)][NMeD]-Morpholide; lactam N-11) | B (a compound having 3 or more and less than 10 is denoted as B) | B (a compound having 3 or more and less than 10 is denoted as B) | 0.34 nM |  | 
3 | CCCOC[C@H]1C(=O)N[C@@H]([C@@H](C)CC)C(=O)N2CCC[C@H]2C(=O)N(C)[C@H]2C/C=C\CCN(C2=O)[C@@H](Cc2ccc(C(F)(F)F)cc2)C(=O)N(C)CC(=O)N[C@@H](CCc2ccc(C(F)(F)F)c(OC)c2)C(=O)N2C[C@H](OCC)C[C@H]2C(=O)N(C)C2(CCC2)C(=O)N(C)[C@@H](C2CCCC2)C(=O)N(C)[C@H](C(=O)N(C)C)CC(=O)N1C [PP2322] | B (a compound having 3 or more and less than 10 is denoted as B) | A (a compound having 10 or more and less than 20 is denoted as A) |  | 0.18 nM | 
4 | CC[C@H](C)[C@@H]1NC(=O)[C@H](COC)N(C)C(=O)C[C@@H](C(=O)N2CCOCC2)N(C)C(=O)[C@H](C2CCCC2)N(C)C(=O)C2(CCC2)NC(=O)[C@@H]2CCCN2C(=O)[C@H](CCc2cc(F)c(C(F)(F)F)c(F)c2)NC(=O)CN(C)C(=O)[C@H](Cc2ccc(C(F)(F)F)cc2)N2CCCCC[C@@H](C2=O)N(C)C(=O)[C@@H]2CCN2C1=O [PP0865] | B (a compound having 3 or more and less than 10 is denoted as B) | B (a compound having 3 or more and less than 10 is denoted as B) |  | 1.1 nM | 
5 | CC[C@H](C)[C@@H]1NC(=O)[C@H](CC2CC2)N(C)C(=O)C[C@@H](C(=O)N(C)C)N(C)C(=O)[C@H](C2CCCC2)N(C)C(=O)C2(CCC2)NC(=O)[C@@H]2[C@@H](OCC(F)F)CCN2C(=O)[C@H](CCc2cc(F)c(C(F)(F)F)c(F)c2)NC(=O)CN(C)C(=O)[C@H](Cc2ccc(C(F)(F)F)cc2)N2CC/C=C\C[C@@H](C2=O)N(C)C(=O)CN(C)C1=O [PP1533] |  |  |  |  | HRAS/KRAS (ratio of KD value for HRAS to KD value for KRAS) [1, 7]: A (a compound having 10 or more and less than 20 is denoted as A); NRAS/KRAS (ratio of KD value for NRAS to KD value for KRAS) [2, 8]: AA (a compound having 20 or more is denoted as AA); Kd [3, 9]: 0.13 nM
6 | CCO[C@@H]1C[C@H]2C(=O)NC3(CC(C)(C)C3)C(=O)N(C)[C@@H](C(CC)CC)C(=O)N(C)[C@H](C(=O)N3CCCC3)CC(=O)N(C)[C@H]3CCC/C=C/c4ccc(cc4)C[C@@H](C(=O)N(C)CC(=O)N[C@@H](CCc4ccc(Cl)c(Cl)c4)C(=O)N2C1)N1CC/C=C\C[C@@H](C1=O)N(C)C(=O)CN(C)C(=O)[C@H]([C@@H](C)CC)NC3=O [PP2581] |  |  | 0.21 nM |  | HRAS/KRAS (ratio of KD value with respect to GDP-bound HRAS wild-type protein to KD value with respect to KRAS) [1]: A (a compound having 10 or more and less than 20 is denoted as A); NRAS/KRAS (ratio of KD value with respect to GDP-bound NRAS wild-type protein to KD value with respect to KRAS) [2]: AA (a compound having 20 or more is denoted as AA)
7 | C#CC[C@H]1C(=O)N[C@@H]([C@@H](C)CC)C(=O)N(C)CC(=O)N(C)[C@H]2C/C=C\CCN(C2=O)[C@@H](Cc2ccc(C(F)(F)F)cc2)C(=O)N(C)CC(=O)N[C@@H](CCc2ccc(C(F)(F)F)c(OC)c2)C(=O)N2CC[C@H]2C(=O)NC2(CCC2)C(=O)N(C)[C@@H](C2CCCC2)C(=O)N(C)[C@H](C(=O)N(C)C)CC(=O)N1C [PP2911] |  |  | 0.52 nM |  | HRAS/KRAS (ratio of KD value with respect to GDP-bound HRAS wild-type protein to KD value with respect to KRAS) [1]: B (a compound having 3 or more and less than 10 is denoted as B); NRAS/KRAS (ratio of KD value with respect to GDP-bound NRAS wild-type protein to KD value with respect to KRAS) [2]: A (a compound having 10 or more and less than 20 is denoted as A)
8 | CCO[C@@H]1C[C@H]2C(=O)NC3(CCC3)C(=O)N(C)[C@@H](C3CCCC3)C(=O)N(C)[C@H](C(=O)N(C)C)CC(=O)N(C)[C@@H](Cc3ccc(Cl)cc3)C(=O)N[C@@H]([C@@H](C)CC)C(=O)N(C)CC(=O)N(C)[C@H]3CCCCCN(C3=O)[C@@H](Cc3ccc(C(F)(F)F)cc3)C(=O)N(C)CC(=O)N[C@@H](CCc3cc(F)c(C(F)(F)F)c(F)c3)C(=O)N2C1 [PP0940] | C (A compound having a KD ratio of 0.1 or more and less than 3 is denoted as C) | B (a compound having 3 or more and less than 10 is denoted as B) |  | 2 nM | 
9 | CC[C@H](C)[C@@H]1NC(=O)[C@H](CC(C)C)N(C)C(=O)C[C@@H](C(=O)N2CCOCC2)N(C)C(=O)[C@H](C2CCCC2)N(C)C(=O)C2(CCC2)NC(=O)[C@@H]2CCCN2C(=O)[C@H](CCc2cc(F)c(C(F)(F)F)c(F)c2)NC(=O)CN(C)C(=O)[C@H](Cc2ccc(C(F)(F)F)cc2)N2CCCC[C@@H](C2=O)N(C)C(=O)CN(C)C1=O [PP0560] |  |  | 0.05 nM |  | HRAS/KRAS (ratio of KD value with respect to HRAS to KD value with respect to KRAS) [1, 4]: B (a compound having 3 or more and less than 10 is denoted as B); NRAS/KRAS (ratio of KD value with respect to NRAS to KD value with respect to KRAS) [2, 5]: B (a compound having 3 or more and less than 10 is denoted as B)
10 | CCC[C@H]1C(=O)N[C@@H]([C@@H](C)CC)C(=O)N(C)CC(=O)N(C)[C@H]2C/C=C\CCN(C2=O)[C@@H](Cc2ccc(C)cc2)C(=O)N(C)CC(=O)N[C@@H](CCc2ccc(C(F)(F)F)c(OC)c2)C(=O)N2CC3(CC3)C[C@H]2C(=O)NC2(CC(C)(C)C2)C(=O)N(C)[C@@H](CC(F)(F)F)C(=O)N(C)[C@H](C(=O)N(C)C)CC(=O)N1C [PP3012] | A (a compound having 10 or more and less than 20 is denoted as A) | A (a compound having 10 or more and less than 20 is denoted as A) |  | 1.9 nM | 
11 | CCCN1C(=O)CN(C)C(=O)[C@@H]2CCN2C(=O)[C@H]([C@@H](C)CC)NC(=O)[C@H](CC(C)C)N(C)C(=O)C[C@@H](C(=O)N2CCOCC2)N(C)C(=O)[C@H](C2CCCC2)N(C)C(=O)C2(CCCC2)NC(=O)[C@@H]2CC(F)(F)CCN2C(=O)[C@H](CCc2ccc(C(F)(F)F)c(Cl)c2)NC(=O)CN(C)C(=O)[C@@H]1Cc1ccc(C(F)(F)F)cc1 [PP0312] ([NMeL]I[Aze][Sar][NPrPhe(4-CF3)][Sar][hPhe(3-Cl-4-CF3)][Pip(4,4-F2)][Ac5c][NMeGly(cPent)][NMeD]-Morpholide; lactam N-11) | B (a compound having 3 or more and less than 10 is denoted as B) | B (a compound having 3 or more and less than 10 is denoted as B) | 3.4 nM |  | 
12 | CCO[C@@H]1C[C@H]2C(=O)NC3(CCC3)C(=O)N(C)[C@@H](C3CCCC3)C(=O)N(C)[C@H](C(=O)N3CCOCC3)CC(=O)N(C)[C@@H](CC3CC3)C(=O)N[C@@H]([C@@H](C)CC)C(=O)N(C)CC(=O)N(C)[C@H]3C/C=C\CCN(C3=O)[C@@H](Cc3ccc(F)cc3)C(=O)N(C)CC(=O)N[C@@H](CCc3cc(F)c(C(F)(F)F)c(F)c3)C(=O)N2C1 [PP1496] |  |  |  |  | HRAS/KRAS (ratio of KD value for HRAS to KD value for KRAS) [1, 7]: B (a compound having 3 or more and less than 10 is denoted as B); NRAS/KRAS (ratio of KD value for NRAS to KD value for KRAS) [2, 8]: A (a compound having 10 or more and less than 20 is denoted as A); Kd [3, 9]: 0.26 nM
13 | CCCN1C(=O)CN(C)C(=O)[C@@H]2CCN2C(=O)[C@H]([C@@H](C)CC)NC(=O)[C@H](CC(C)C)N(C)C(=O)C[C@@H](C(=O)N2CCOCC2)N(C)C(=O)[C@H](C2CCCC2)N(C)C(=O)C2(CCC2)NC(=O)[C@@H]2C[C@@H](OCC)CN2C(=O)[C@H](CCc2ccc(C(F)(F)F)c(Cl)c2)NC(=O)CN(C)C(=O)[C@@H]1Cc1ccc(C(F)(F)F)cc1 [PP0405] ([NMeL]I[Aze][Sar][NPrPhe(4-CF3)][Sar][hPhe(3-Cl-4-CF3)][Hyp](Et)[Ac4c][NMeGly(cPent)][NMeD]-Morpholide; lactam N-11) | C (A compound having a KD ratio of 0.1 or more and less than 3 is denoted as C) | B (a compound having 3 or more and less than 10 is denoted as B) | 0.31 nM |  | 
14 | CCC[C@H]1C(=O)N[C@@H](C2CCCCC2)C(=O)N(C)CC(=O)N(C)[C@H]2C/C=C\CCN(C2=O)[C@@H](Cc2ccc(C(F)(F)F)cc2)C(=O)N(C)CC(=O)N[C@@H](CCc2ccc(C(F)(F)F)c(Cl)c2)C(=O)N2C[C@H](OCC)C[C@H]2C(=O)NC2(CC(C)(C)C2)C(=O)N(C)[C@@H](CC(C)C)C(=O)N(C)[C@H](C(=O)N(C)C)CC(=O)N1C [PP3017] | A (a compound having 10 or more and less than 20 is denoted as A) | AA (a compound having 20 or more is denoted as AA) |  | 1.5 nM | 

Reference: patent US20240158446A1, “CYCLIC COMPOUND HAVING SELECTIVE INHIBITORY ACTION ON KRAS OVER HRAS AND NRAS” (CHUGAI SEIYAKU KABUSHIKI KAISHA, priority 2021, published 2024)
